Measured values from US5633276A, “Indoline derivatives, method of preparation and use” (Glaxo Group Limited, priority 1993, dated 1997).
Counter-ions that a name gives are not always drawn.

Assays:
[1] = target: melatonin receptors in chicken retinal membranes; test: Binding to melatonin receptors in chicken retinal membranes; details: method of Dubocovich and Takahashi, read-out: Chicken retina Ki
Source text: (§1) The results obtained for particular compounds according to the present invention are as follows:

rabbit retina = test: Melatonin agonist or antagonist activity in rabbit retina; format: cell-based; details: Oryctolagus cuniculus, method of Dubocovich
Source text: as §1

| Ki [1] [nM] | IC50 (rabbit retina) [nM] | SMILES |
| --- | --- | --- |
| 1.68 | 0.2 | O=C(NCCN1CCc2ccc3c(c21)CCO3)C1CC1 [Example 6, Cyclopropanecarboxylic acid [2-(2,3,7,8-tetrahydro-1H-furo[2,3-g]indol-1-yl)-ethyl]-amide] |
| 3.21 |  | CC(=O)NCCN1CCc2cc(Cl)c3c(c21)CCO3 [Example 5, N-[2-(5-Chloro-2,3,7,8-tetrahydro-1H-furo[2,3-g]indol-1-yl)-ethyl]-acetamide] |
| 0.42 | 0.04 | CC(=O)NCCN1CCc2ccc3c(c21)CCO3 [Example 3, N-[2-(2,3,7,8-Tetrahydro-1H-furo[2,3-g]indol-1-yl)ethyl]-acetamide] |
| 4.92 | 0.95 | CC(=O)NCCN1CCc2ccc3c(c21)CCCO3 [Example 2, N-[2-(2,3,8,9-Tetrahydro-7H-pyrano[2,3-g]indol-1-yl)-ethyl]-acetamide hydrochloride] |
